Results taken from US12318393B2, “Modulators of orphan nuclear receptors for NASH and other metabolic disorders” (Emory University, priority 2018, dated 2025).

Experiments:
[1] = Cellular toxicity assay in human PBM cells; type: cell-based; settings: read-out: Cytotoxicity (IC50, μM) PBM
Description: The toxicity of the compounds was assessed in human PBM, CEM (human lymphoblastoid), and Huh-7 cells, as described previously (see Schinazi R. F., Sommadossi J.-P., Saalmann V., Cannon D. L., Xie M.-Y., Hart G. C., Smith G. A. & Hahn E. F. Antimicrob. Agents Chemother. 1990, 34, 1061-67). Cycloheximide was included as positive cytotoxic control, and untreated cells exposed to solvent were included as negative controls. The cytotoxicity IC50 was obtained from the concentration-response curve using the median effective method described previously (see Chou T.-C. & Talalay P. Adv. Enzyme Regul. 1984, 22, 27-55; Belen'kii M. S. & Schinazi R. F. Antiviral Res. 1994, 25, 1-11).

RORα = target: T1, RORα (Homo sapiens, UniProt P35398); experiment: RORα activity by luciferase reporter (miR-122 promoter with WT or mutated RORE) in Huh-7 cells; type: cell-based; settings: 24 hours of treatment
T1 construct: endogenous in cells; host or cells: Huh-7 (human hepatocellular carcinoma cells)
T1 sequence (P35398 1-523): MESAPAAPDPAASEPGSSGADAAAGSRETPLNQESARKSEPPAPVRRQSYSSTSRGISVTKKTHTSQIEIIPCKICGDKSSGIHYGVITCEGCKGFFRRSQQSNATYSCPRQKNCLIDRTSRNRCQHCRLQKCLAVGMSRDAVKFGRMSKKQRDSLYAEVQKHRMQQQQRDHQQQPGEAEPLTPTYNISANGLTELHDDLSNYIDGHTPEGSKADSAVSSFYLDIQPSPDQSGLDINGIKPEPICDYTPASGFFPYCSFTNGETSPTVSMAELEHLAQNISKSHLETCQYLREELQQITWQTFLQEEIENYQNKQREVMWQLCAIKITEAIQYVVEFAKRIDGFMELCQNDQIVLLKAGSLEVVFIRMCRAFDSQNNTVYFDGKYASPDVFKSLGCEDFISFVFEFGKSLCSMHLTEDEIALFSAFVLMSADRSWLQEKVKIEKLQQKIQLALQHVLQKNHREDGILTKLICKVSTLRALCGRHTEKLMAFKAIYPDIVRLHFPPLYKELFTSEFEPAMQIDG
Description: Huh-7 cells were transfected with a luciferase reporter plasmid containing the miR-122 promoter (extends to −900 from the transcription start site) with intact wild-type (WT) RORα response element (RORE) or mutated RORE (mut). The cells were treated with Compound 1 one day (24 hours) post-transfection at the indicated concentrations. Luciferase expression was measured after 24 hours of treatment and normalized to Renilla Luciferase activity expressed from a co-transfected pRL plasmid. The pRL Vector, which provides constitutive expression of Renilla luciferase, was used in combination with a firefly luciferase vector to co-transfect cells. […]
Luciferase assay. […] Firefly and Renilla luciferase activity was assessed using the Dual Luciferase Reporter Assay system (Promega). Readings were taken in triplicates on a Mithras LB 940 Luminometer (Berthold Technologies). […]
Following transfections, the cells were lysed with passive lysis buffer (Cat #E1941; Promega), shaking for 20 min at RT and transferred into appropriate 96-well plate. Firefly and Renilla luciferase activity was assessed using the Dual Luciferase Reporter Assay system (Cat #E1910; Promega) on a luminometer Mithras 2000 (Centro XZ, LB960, Berthold Technologies, Bad Wildbad, Germany). […] Readings were taken in triplicate.

[2] = test system: C57BL/6 mice fed with HFD; experiment: Multi-parameter metabolic assessment (metabolic cages) in HFD-fed C57BL/6 mice; type: in vivo; settings: 15 mg/kg 3 times a week, after 2 weeks, 24 hr period, vs saline
Description: Metabolic and activity profiles of the mice were measured, by using the Promethion High-Definition Behavioral Phenotyping System (Sable Instruments, Inc., Las Vegas, NV, USA), which is a multi-parameter assessment incorporating sub-systems for open-circuit indirect calorimetry, feeding, water intake, activity, running wheel and body mass measurements in a conventional live-in home cage that minimizes stress. Data acquisition and instrument control were performed using the MetaScreen software version 2.2.18.0, and the obtained raw data were processed using ExpeData version 1.8.4 using an analysis script detailing all aspects of data transformation. […] Respiratory gases were measured by using the GA-3 gas analyzer (Sable Systems Inc., Las Vegas, NV, USA) using a pull-mode, negative-pressure system. Air flow was measured and controlled by the FR-8 (Sable Systems Inc., Las Vegas, NV, USA), with a set flow rate of 2000 mL/min. Water vapor was continuously measured and its dilution effect on 02 and CO2 were mathematically compensated. Effective mass was calculated by ANCOVA analysis. Respiratory quotient (RQ) was calculated as the ratio of VCO2/VO2. Total energy expenditure (TEE) was calculated as VO2×(3.815+1.232×RQ), normalized to effective body mass, and expressed as kcal/h/kgeff.Mass. […]

O=C1Nc2cc(C(=O)N3CCC(Cc4ccccc4)CC3)ccc2Nc2ccccc21 [Compound 1]
IC50 [1]: 92.4 µM
luciferase expression, mutated RORE (RORα; Huh-7, miR-122 promoter reporter with mutated RORE): negates activity
luciferase expression, WT RORE (RORα; Huh-7, miR-122 promoter reporter with wild-type RORE): dose-dependent increase
fat oxidation [2]: increased
total energy expenditure (TEE) [2]: increased
